Data taken from patent publication US9657006B2, “Macrocyclic factor VIIa inhibitors” (BRISTOL-MYERS SQUIBB COMPANY, priority 2013, dated 2017).
Structures can show the parent of a compound that is named as a salt. Where two headings read alike, the source gives them in different places.

Legend:
[1] = amide bond
FVIIa = target: T1, FVIIa (Homo sapiens, UniProt P08709); assay: FVIIa Ki (25° C.): FVIIa peptide substrate assay; assay type: biochemical; settings: S2288 peptide substrate, full-length human TF
T1 construct: with about 1% of the total amount in the proteolytically active form factor VIIa
Protocol: The effectiveness of compounds of the present invention as inhibitors of the coagulation Factors, VIIa, IXa, Xa, XIa, XIIa, plasma kallikrein or thrombin, tissue kallikrein and activated protein C, can be determined using a relevant purified serine protease, respectively, and an appropriate synthetic substrate. The rate of hydrolysis of the chromogenic or fluorogenic substrate by the relevant serine protease was measured both in the absence and presence of compounds of the present invention. […] A decrease in the rate of absorbance or fluorescence change in the presence of inhibitor is indicative of enzyme inhibition. Such methods are known to one skilled in the art. The results of this assay are expressed as the inhibitory constant, Ki.
a. FVIIa Ki (25° C.): FVIIa Peptide Substrate Assay
S2288 (range of concentrations) and FVIIa inhibitor were incubated for 15 minutes (min) at 25° C. Reactions were initiated by addition of a solution of full-length human TF (6 nM), FVIIa (0.75 nM), and PCPS (25 μM). FVIIa hydrolyses S2288, which was monitored for up to 60 min at 405 nm. Steady-state reaction velocity data (vs) was globally fit to Equation 1 for competitive inhibition. vs=Vmax[S]/([S]+Km(1+[I]/Ki)) (Eq. 1) where Vmax is maximum velocity, [S] is substrate concentration, Km is the Michaelis-Menten constant, [I] is the inhibitor concentration, and Ki is the inhibitor dissociation constant (GraFit, version 5, Erithacus Software Ltd, West Sussex, UK).

T1 sequence (P08709 213-466 limits assumed): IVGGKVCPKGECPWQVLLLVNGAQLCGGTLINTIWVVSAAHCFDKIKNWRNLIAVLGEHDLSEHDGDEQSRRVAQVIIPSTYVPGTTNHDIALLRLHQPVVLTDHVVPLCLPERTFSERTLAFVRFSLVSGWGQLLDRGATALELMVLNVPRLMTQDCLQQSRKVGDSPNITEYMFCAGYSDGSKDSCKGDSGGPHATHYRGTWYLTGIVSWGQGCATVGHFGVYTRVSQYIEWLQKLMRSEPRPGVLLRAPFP
T1 sequence (P08709 61-212 limits assumed): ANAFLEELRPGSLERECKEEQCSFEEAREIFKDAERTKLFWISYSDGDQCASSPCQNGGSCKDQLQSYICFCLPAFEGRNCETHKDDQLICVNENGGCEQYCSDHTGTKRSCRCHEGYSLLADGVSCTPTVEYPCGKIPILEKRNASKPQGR
T1 sequence (P13726 33-295 partner): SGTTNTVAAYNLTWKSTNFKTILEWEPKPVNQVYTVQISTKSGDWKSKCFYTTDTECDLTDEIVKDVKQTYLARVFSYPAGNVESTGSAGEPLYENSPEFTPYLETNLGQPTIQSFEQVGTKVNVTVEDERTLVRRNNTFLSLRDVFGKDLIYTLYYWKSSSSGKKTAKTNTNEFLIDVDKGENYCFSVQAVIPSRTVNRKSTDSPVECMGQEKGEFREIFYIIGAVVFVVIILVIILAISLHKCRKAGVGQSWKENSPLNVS

## CCOC(=O)CC1NC(=O)[C@H](Nc2ccc(C#N)cc2)c2ccc(OCC(F)F)c(c2)CCC(=O)Nc2cccc1c2 (some centres unmarked)
[1]; 14-membered ring, HATU
  ring closure, isolated yield: 21%

## CN1Cc2cc(cc(F)c2OC(CF)CF)NC(=O)CCc2cc(ccc2OCC(F)F)C(Nc2ccc(C#N)cc2)C1=O (centres unmarked)
[1]; from CNCc1cc(NC(=O)CCc2cc(C(Nc3ccc(C#N)cc3)C(=O)O)ccc2OCC(F)F)cc(F)c1OC(CF)CF, 14-membered ring, BOP
  ring closure, isolated yield: 44%

## CN1Cc2cc(cc(F)c2OC(F)F)NC(=O)CCc2cccc(c2)C(Nc2ccc(C#N)cc2)C1=O (centres unmarked)
[1]; from CN(Cc1cc(N)cc(F)c1OC(F)F)C(=O)C(Nc1ccc(C#N)cc1)c1cccc(CCC(=O)O)c1, 14-membered ring, BOP/DMAP/DIPEA, DCM/DMF, 4.8 mM, 40.0 °C, 21.0 h
  ring closure, isolated yield: 80%

## CN1Cc2cc(cc(F)c2OCC(F)F)NC(=O)CCc2cc(ccc2OCC(F)F)C(Nc2ccc(C#N)cc2)C1=O (centres unmarked)
[1]; from CNCc1cc(NC(=O)CCc2cc(C(Nc3ccc(C#N)cc3)C(=O)O)ccc2OCC(F)F)cc(F)c1OCC(F)F, 14-membered ring, BOP
  ring closure, isolated yield: 62%

## CN1Cc2cc(ccc2S(=O)(=O)C(F)(F)F)NC(=O)CCc2cc(ccc2OCC(F)F)C(Nc2ccc3c(N(C(=O)OC(C)(C)C)C(=O)OC(C)(C)C)ncc(F)c3c2)C1=O (centres unmarked)
[1]; from CNCc1cc(NC(=O)CCc2cc(C(Nc3ccc4c(N(C(=O)OC(C)(C)C)C(=O)OC(C)(C)C)ncc(F)c4c3)C(=O)O)ccc2OCC(F)F)ccc1S(=O)(=O)C(F)(F)F, 14-membered ring, BOP
  ring closure, isolated yield: 45%

## CN1Cc2cc(ccc2S(=O)(=O)C2CC2)NC(=O)CCc2cc(ccc2C2CC2)C(Nc2ccc3c(N(C(=O)OC(C)(C)C)C(=O)OC(C)(C)C)ncc(F)c3c2)C1=O (centres unmarked)
[1]; from CNCc1cc(NC(=O)CCc2cc(C(Nc3ccc4c(N(C(=O)OC(C)(C)C)C(=O)OC(C)(C)C)ncc(F)c4c3)C(=O)O)ccc2C2CC2)ccc1S(=O)(=O)C1CC1, 14-membered ring, BOP
  ring closure, isolated yield: 82%

## CN1Cc2cc(ccc2S(=O)(=O)C2CC2)NC(=O)CCc2cc(ccc2F)C(Nc2ccc3c(N(C(=O)OC(C)(C)C)C(=O)OC(C)(C)C)ncc(F)c3c2)C1=O (centres unmarked)
[1]; from CNCc1cc(NC(=O)CCc2cc(C(Nc3ccc4c(N(C(=O)OC(C)(C)C)C(=O)OC(C)(C)C)ncc(F)c4c3)C(=O)O)ccc2F)ccc1S(=O)(=O)C1CC1, 14-membered ring, BOP/DMAP/DIPEA, DCM/DMF, 25.0 °C, 12.0 h
  ring closure, isolated yield: 30%

## CN1Cc2cc(ccc2S(=O)(=O)C2CC2)NC(=O)CCc2cccc(c2)C(Nc2ccc3c(N(C(=O)OC(C)(C)C)C(=O)OC(C)(C)C)ncc(F)c3c2)C1=O (centres unmarked)
[1]; from CNCc1cc(NC(=O)CCc2cccc(C(Nc3ccc4c(N(C(=O)OC(C)(C)C)C(=O)OC(C)(C)C)ncc(F)c4c3)C(=O)O)c2)ccc1S(=O)(=O)C1CC1, 14-membered ring, BOP/DMAP/DIPEA, DCM/DMF, 25.0 °C
  ring closure, isolated yield: 41%

## CN1Cc2cc(ccc2S(=O)(=O)C2CC2)NC(=O)CCc2cccc(c2)C(Nc2ccc3c(N(C(=O)OC(C)(C)C)C(=O)OC(C)(C)C)nccc3c2)C1=O (centres unmarked)
[1]; from CNCc1cc(NC(=O)CCc2cccc(C(Nc3ccc4c(N(C(=O)OC(C)(C)C)C(=O)OC(C)(C)C)nccc4c3)C(=O)O)c2)ccc1S(=O)(=O)C1CC1, 14-membered ring, BOP/DMAP/DIPEA, DCM/DMF, 23.3 mM, 25.0 °C, 12.0 h
  ring closure, isolated yield: 50%

## COc1c(F)cc2cc1CCC(=O)Nc1ccc(S(=O)(=O)C3CC3)c(c1)CN(C)C(=O)C2Nc1ccc2c(N(C(=O)OC(C)(C)C)C(=O)OC(C)(C)C)ncc(F)c2c1 (centres unmarked)
[1]; from CNCc1cc(NC(=O)CCc2cc(C(Nc3ccc4c(N(C(=O)OC(C)(C)C)C(=O)OC(C)(C)C)ncc(F)c4c3)C(=O)O)cc(F)c2OC)ccc1S(=O)(=O)C1CC1, 14-membered ring, BOP/DMAP/DIPEA, DCM/DMF, 25.0 °C
  ring closure, isolated yield: 18%

## COc1cc2cc(c1)C(Nc1ccc3c(N(C(=O)OC(C)(C)C)C(=O)OC(C)(C)C)ncc(F)c3c1)C(=O)N(C)Cc1cc(ccc1S(=O)(=O)C1CC1)NC(=O)CC2 (centres unmarked)
[1]; from CNCc1cc(NC(=O)CCc2cc(OC)cc(C(Nc3ccc4c(N(C(=O)OC(C)(C)C)C(=O)OC(C)(C)C)ncc(F)c4c3)C(=O)O)c2)ccc1S(=O)(=O)C1CC1, 14-membered ring, BOP/DMAP/DIPEA, DCM/DMF, 25.0 °C, 12.0 h
  ring closure, isolated yield: 69%

## COc1ccc2cc1COCC(=O)Nc1ccc(S(=O)(=O)C3CC3)c(c1)CN(C)C(=O)C2Nc1ccc2c(N(C(=O)OC(C)(C)C)C(=O)OC(C)(C)C)nccc2c1 (centres unmarked)
[1]; from CNCc1cc(NC(=O)COCc2cc(C(Nc3ccc4c(N(C(=O)OC(C)(C)C)C(=O)OC(C)(C)C)nccc4c3)C(=O)O)ccc2OC)ccc1S(=O)(=O)C1CC1, 15-membered ring, BOP/DMAP/DIPEA, DCM/DMF, 25.0 °C, 12.0 h
  ring closure, isolated yield: 54%

## C[C@@H]1CC(=O)Nc2ccc(OC(F)F)c(c2)CN(C)C(=O)C(Nc2ccc(C#N)cc2)c2ccc(OCc3ccccc3)c1c2 (some centres unmarked)
[1]; from CNCc1cc(NC(=O)C[C@@H](C)c2cc(C(Nc3ccc(C#N)cc3)C(=O)O)ccc2OCc2ccccc2)ccc1OC(F)F, 14-membered ring, BOP
  ring closure, isolated yield: 64%

## C[C@@H]1CC(=O)Nc2ccc(S(=O)(=O)C3CC3)c(c2)CN(C)C(=O)C(Nc2ccc3c(N(C(=O)OC(C)(C)C)C(=O)OC(C)(C)C)ncc(F)c3c2)c2ccc(OCc3ccccc3)c1c2 (some centres unmarked)
[1]; from CNCc1cc(NC(=O)C[C@@H](C)c2cc(C(Nc3ccc4c(N(C(=O)OC(C)(C)C)C(=O)OC(C)(C)C)ncc(F)c4c3)C(=O)O)ccc2OCc2ccccc2)ccc1S(=O)(=O)C1CC1, 14-membered ring, BOP
  ring closure, isolated yield: 19%

## C[C@H]1CC(=O)Nc2ccc(S(=O)(=O)C3CC3)c(c2)CN(C)C(=O)C(Nc2ccc3c(N(C(=O)OC(C)(C)C)C(=O)OC(C)(C)C)ncc(F)c3c2)c2ccc(OCc3ccccc3)c1c2 (some centres unmarked)
[1]; from CNCc1cc(NC(=O)C[C@H](C)c2cc(C(Nc3ccc4c(N(C(=O)OC(C)(C)C)C(=O)OC(C)(C)C)ncc(F)c4c3)C(=O)O)ccc2OCc2ccccc2)ccc1S(=O)(=O)C1CC1, 14-membered ring, BOP/DMAP/DIPEA, DCM/DMF, 25.0 °C
  ring closure, isolated yield: 24%

## CCCCOc1ccc2cc1CCC(=O)Nc1ccc(S(=O)(=O)C3CC3)c(c1)CN(C)C(=O)[C@@H]2Nc1ccc2c(N)ncc(F)c2c1 [Example 23, (R)-11-(1-Amino-4-fluoro-isoquinolin-6-ylamino)-7-butoxy-16-cyclopropanesulfonyl-13-methyl-2,13-diaza-tricyclo[13.3.1.1^6,10]icosa-1(19),6,8,10(20),15,17-hexaene-3,12-dione trifluroracetic acid salt]
FVIIa
  Ki: 5 nM

## CC(C)COc1ccc2cc1CCC(=O)Nc1ccc(S(=O)(=O)C3CC3)c(c1)CN(C)C(=O)[C@@H]2Nc1ccc2c(N)ncc(F)c2c1 [Example 24, (R)-11-(1-Amino-4-fluoro-isoquinolin-6-ylamino)-16-cyclopropanesulfonyl-7-isobutoxy-13-methyl-2,13-diaza-tricyclo[13.3.1.1^6,10]icosa-1(19),6,8,10(20),15,17-hexaene-3,12-dione trifluroracetic acid salt]
FVIIa
  Ki: 5 nM

## CN1Cc2cc(ccc2S(=O)(=O)C2CC2)NC(=O)CCc2cc(ccc2OCC2CCC2)[C@@H](Nc2ccc3c(N)ncc(F)c3c2)C1=O [Example 25, (R)-11-(1-Amino-4-fluoro-isoquinolin-6-ylamino)-7-cyclobutylmethoxy-16-cyclopropanesulfonyl-13-methyl-2,13-diaza-tricyclo[13.3.1.1^6,10]icosa-1(19),6,8,10(20),15,17-hexaene-3,12-dione trifluroracetic acid salt]
FVIIa
  Ki: 6 nM

## CC(C)Oc1ccc2cc1CCC(=O)Nc1ccc(S(=O)(=O)C3CC3)c(c1)CN(C)C(=O)[C@@H]2Nc1ccc2c(N)ncc(F)c2c1 [Example 26, (R)-11-(1-Amino-4-fluoro-isoquinolin-6-ylamino)-16-cyclopropanesulfonyl-7-isopropoxy-13-methyl-2,13-diaza-tricyclo[13.3.1.1^6,10]icosa-1(19),6,8,10(20),15,17-hexaene-3,12-dione trifluroracetic acid salt]
FVIIa
  Ki: 5 nM

## CN1Cc2cc(ccc2S(=O)(=O)C2CC2)NC(=O)N(CC2CCC2)CCc2cccc(c2)C(Nc2ccc3c(N)ncc(F)c3c2)C1=O (centres unmarked) [Example 27, 5-(1-Amino-4-fluoro-isoquinolin-6-ylamino)-13-cyclobutylmethyl-19-cyclopropanesulfonyl-3-methyl-3,13,15-triaza-tricyclo[14.3.1.1^6,10]henicosa-1(19),6(21),7,9,16(20),17-hexaene-4,14-dione trifluoroacetic acid salt]
FVIIa
  Ki: 148 nM

## C[C@@H]1CC(=O)Nc2cccc(c2)[C@@H](CC(=O)O)NC(=O)[C@H](Nc2ccc(C(=N)N)cc2)c2ccc(OCC(F)F)c1c2 [Example 44, trifluoroacetic acid salt]
FVIIa
  Ki: 5 nM

## (R)-11-(1-Amino-4-fluoro-isoquinolin-6-ylamino)-16-cyclopropane sulfonyl-7-(2,2-difluoro-ethoxy)-13-methyl-2,13-diaza-tricyclo[13.3.1.1^6,10]icosa-1(18),6,8,10(20),15(19),16-hexaene-3,12-dione trifluoroacetic acid salt [Example 33]
FVIIa
  Ki: 21 nM

## (R)-11-(5-Amino-8-fluoro-naphthalen-2-ylamino)-16-cyclopropanesulfonyl-7-cyclopropyl-13-methyl-2,13-diaza-tricyclo[13.3.1.1^6,10]icosa-1(18),6,8,10(20),15(19),16-hexaene-3,12-dione trifluoroacetic acid salt [Example 36]
FVIIa
  Ki: 5 nM
